Data set [1] addresses Thymidylate synthase (Mus musculus) (UniProt P07607). Nature of the data set: Compound was evaluated for its ability to inhibit tritium release using 1 uM [5-3H]-dCyd for the cellular enzyme assay.
The test system of the next data set is Human alphaherpesvirus 1. Description: (§1) Compound was tested in mice for the cytotoxicity against the herpes simplex virus type 1 (strain F) in plaque; Inactive. The conditions noted are these: human alphaherpesvirus 1, in vivo. The format is organism-based.
Data set [2] has as its target Thymidylate synthase (Mus musculus) (UniProt P07607). Nature of the data set: compound was evaluated for its ability to inhibit tritium release using 1 uM [5-3H]-dUrd for the cellular enzyme assay; Inactive.
For data set [3] the target is unchanged. Description: Inhibition of thymidylate synthase in L1210 cells. In kind it is cell-based.
Data set [4] deals with HL-60. Description: Anticancer activity was evaluated for the compound against parent promyelocytic leukemia cell line (HL-60-GHPRT+/dCK+). In kind it is functional. The note with it: Homo sapiens, read-out: ED50 (the source's name).
Data set [5] deals with HL-60. Nature of the data set: Anticancer activity of the compound against ara-C resistant promyelocytic leukemia cell line that is Cyd-kinase deficient (HL-60-HGPRT-/dCK-) is determined. In kind it is functional. The note with it: Homo sapiens, read-out: ED50 (the source's name).
For data set [6], the system named is HL-60. Description: Anticancer activity was evaluated for the compound against ara-C resistant promyelocytic leukemia cell line that is Cyd-kinase deficient (HL-60-HGPRT-/dCK-). The note with it: Homo sapiens, read-out: ID50 (the source's name). The format is functional.
A short description of data set [7]: compound was evaluated for its ability to inhibit tritium release using 1 uM [5-3H]-dUrd for the cellular enzyme assay. In kind it is functional.
A further data set is filed under the species Mus musculus. Described as §1. The format is functional, organism-based.

These results are taken from ChEMBL document CHEMBL1123319, “Synthesis and biological activity of 5-phenylselenenyl-substituted pyrimidine nucleosides” (J Med Chem, 1986).

Activity calls are given as the source filed them. The calls are words filed in the database; no cut-off is given here.

Sequence of Thymidylate synthase (Mus musculus) (P07607 whole entry, looked up): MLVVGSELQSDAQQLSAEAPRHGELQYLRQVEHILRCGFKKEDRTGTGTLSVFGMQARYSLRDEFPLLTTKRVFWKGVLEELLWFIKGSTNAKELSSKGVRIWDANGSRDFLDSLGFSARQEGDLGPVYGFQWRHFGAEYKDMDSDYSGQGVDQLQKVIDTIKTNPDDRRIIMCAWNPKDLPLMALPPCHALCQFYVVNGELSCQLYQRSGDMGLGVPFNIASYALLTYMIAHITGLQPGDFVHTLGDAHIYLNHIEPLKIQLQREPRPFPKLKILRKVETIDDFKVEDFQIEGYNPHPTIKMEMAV

Regarding `O=c1[nH]c(=O)n([C@H]2C[C@H](O)[C@@H](CO)O2)cc1[Se]c1ccccc1`, the ID50 in data set [1] amounted to 70 µM. In addition, the LD50 entry in the data set on Human alphaherpesvirus 1 was “Not Active”. Also, in [2], the ID50 entry is “inactive”.
As for `Nc1ccn([C@@H]2O[C@H](CO)[C@@H](O)[C@@H]2O)c(=O)n1` [CYTARABINE], the ED50 in data set [3] is 0.03 µM. Also, the EC50 stood at 0.047 µM in the data set on HL-60 [4] and 30 µM in the data set on HL-60 [5].
On to `Nc1nc(=O)n([C@@H]2O[C@H](CO)[C@@H](O)[C@@H]2O)cc1[Se]c1ccccc1`, for which, in the data set on HL-60 [6], the IC50 came to 375 µM. The compound further returned an ED50 in [3] of 25 µM. The same compound yielded an ID50 in data set [7] of 60 µM.
For `O=c1[nH]c(=O)n([C@@H]2O[C@H](CO)[C@@H](O)[C@@H]2O)cc1[Se]c1ccccc1`, the EC50 with HL-60 [4] worked out at 88 µM. The LD50 result in the data set filed under Mus musculus is “inactive”.
